Source: US20230233569A1 (Revolution Medicines, Inc., priority 2020, published 2023)
“And” between values parts separate entries of the source, which are not always exact repeats. Equal entries are not always repeated. Where two headings read alike, the source gives them in different places.

Assays:
Experiment in all cases: Disruption of BRAF RBD interaction with Ras (FRET / MOA assay, with Cyclophilin A)
Format in all cases: biochemical
[1] = molecular target: KRAS G12C (Homo sapiens, UniProt P01116+P62937, G12C)
From the text: (§1) This protocol may also be executed substituting other Ras proteins or nucleotides.
(§2) The purpose of this biochemical assay was to measure the ability of test compounds to facilitate ternary complex formation between a nucleotide-loaded K-Ras isoform and Cyclophilin A; the resulting ternary complex disrupts binding to a BRAF^RBD construct, inhibiting K-Ras signaling through a RAF effector. Data is reported as IC50 values.
(§3) Compound was present in plate wells as a 10-point 3-fold dilution series starting at a final concentration of 30 μM. After incubation at 25° C. for 3 hours, a mixture of Anti-His Eu-W1024 and anti-GST allophycocyanin was then added to assay sample wells at final concentrations of 10 nM and 50 nM, respectively, and the reaction incubated for an additional 1.5 hours. […] Compounds that facilitate disruption of a K-Ras:RAF complex were identified as those eliciting a decrease in the TR-FRET ratio relative to DMSO control wells.
(§4) The purpose of this biochemical assay was to measure the ability of test compounds to facilitate ternary complex formation between a nucleotide-loaded K-Ras isoform and Cyclophilin A; the resulting ternary complex disrupts binding to a BRAF^RBDD construct, inhibiting K-Ras signaling through a RAF effector. Data is reported as IC50 values.

[2] = molecular target: KRAS G12D (Homo sapiens, UniProt P01116+P62937, G12D)
From the text: as §1, §2, §3, §4

[3] = molecular target: KRAS G12S (Homo sapiens, UniProt P01116+P62937, G12S)
From the text: as §1, §2, §3, §4

[4] = molecular target: KRAS G12V (Homo sapiens, UniProt P01116+P62937, G12V)
From the text: as §1, §2, §3, §4

[5] = molecular target: KRAS G13C (Homo sapiens, UniProt P01116+P62937, G13C)
From the text: as §1, §2, §3, §4

[6] = molecular target: KRAS WT (Homo sapiens, UniProt P01116+P62937)
From the text: as §1, §2, §3, §4

[7] = KRAS G12C, read-out: KRAS G12C FRET data IC50
[8] = read-out: KRAS G12D FRET data, IC50
[9] = read-out: KRAS G12S FRET data, IC50
[10] = KRAS G12V, read-out: KRAS G12V FRET data IC50
[11] = KRAS G13C, read-out: KRAS G13C FRET data IC50
[12] = KRAS WT, read-out: KRAS WT FRET data IC50

KRAS G12S, sequence (P01116 1-169 isoform P01116-2 G12S limits assumed): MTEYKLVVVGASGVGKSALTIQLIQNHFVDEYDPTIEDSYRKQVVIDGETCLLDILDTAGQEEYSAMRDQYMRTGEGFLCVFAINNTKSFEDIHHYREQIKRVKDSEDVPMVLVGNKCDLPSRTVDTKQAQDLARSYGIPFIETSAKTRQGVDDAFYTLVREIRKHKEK
KRAS G12S, sequence (P62937 whole entry): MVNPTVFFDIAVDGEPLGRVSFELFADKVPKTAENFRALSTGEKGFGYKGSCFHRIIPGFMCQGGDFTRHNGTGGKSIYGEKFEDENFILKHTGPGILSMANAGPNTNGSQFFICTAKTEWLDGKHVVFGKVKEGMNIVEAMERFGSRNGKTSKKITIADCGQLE
KRAS G13C, sequence (P01116 1-169 isoform P01116-2 G13C): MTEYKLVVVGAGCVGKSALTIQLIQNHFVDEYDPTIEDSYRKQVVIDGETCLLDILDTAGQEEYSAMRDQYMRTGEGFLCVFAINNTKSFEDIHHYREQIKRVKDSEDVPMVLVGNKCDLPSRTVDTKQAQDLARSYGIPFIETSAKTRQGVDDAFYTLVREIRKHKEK
KRAS G13C, sequence (P62937 whole entry): as the sequence (P62937 whole entry) above
KRAS G12V, sequence (P01116 1-169 isoform P01116-2 G12V limits assumed): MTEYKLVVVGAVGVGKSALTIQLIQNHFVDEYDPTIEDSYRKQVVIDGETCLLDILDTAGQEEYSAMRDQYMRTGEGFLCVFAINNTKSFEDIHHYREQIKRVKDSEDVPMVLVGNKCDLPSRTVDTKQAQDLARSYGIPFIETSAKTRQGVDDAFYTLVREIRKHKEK
KRAS G12V, sequence (P62937 whole entry): as the sequence (P62937 whole entry) above
KRAS WT, sequence (P01116 1-169 isoform P01116-2 limits assumed): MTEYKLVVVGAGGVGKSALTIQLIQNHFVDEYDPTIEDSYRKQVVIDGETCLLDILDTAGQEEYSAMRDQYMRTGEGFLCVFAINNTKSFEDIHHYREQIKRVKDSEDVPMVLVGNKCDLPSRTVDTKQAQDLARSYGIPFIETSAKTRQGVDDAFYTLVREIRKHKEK
KRAS WT, sequence (P62937 whole entry): as the sequence (P62937 whole entry) above
KRAS G12C, sequence (P01116 1-169 isoform P01116-2 G12C): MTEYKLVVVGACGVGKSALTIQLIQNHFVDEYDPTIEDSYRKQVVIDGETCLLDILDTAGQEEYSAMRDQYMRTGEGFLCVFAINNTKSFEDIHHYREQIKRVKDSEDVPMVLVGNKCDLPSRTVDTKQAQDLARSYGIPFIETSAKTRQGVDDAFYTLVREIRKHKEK
KRAS G12C, sequence (P62937 whole entry): as the sequence (P62937 whole entry) above
KRAS G12D, sequence (P01116 1-169 isoform P01116-2 G12D limits assumed): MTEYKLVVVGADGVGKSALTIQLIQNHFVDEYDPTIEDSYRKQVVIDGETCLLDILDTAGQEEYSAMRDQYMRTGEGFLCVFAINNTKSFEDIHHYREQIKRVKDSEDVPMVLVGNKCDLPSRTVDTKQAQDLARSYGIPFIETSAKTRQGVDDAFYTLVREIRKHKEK
KRAS G12D, sequence (P62937 whole entry): as the sequence (P62937 whole entry) above

SMILES	IC50 [1, 7] [nM]	IC50 [2, 8] [nM]	IC50 [3, 9] [nM]	IC50 [4, 10] [nM]	IC50 [5, 11] [nM]	IC50 [6, 12] [nM]	IC50 ([1]; KRAS G12C FRET data IC50, KRAS G12C)	IC50 ([2]; KRAS G12D FRET data, IC50) [nM]	IC50 ([3]; KRAS G12S FRET data, IC50)	IC50 ([4]; KRAS G12V FRET data IC50, KRAS G12V)	IC50 ([5]; KRAS G13C FRET data IC50, KRAS G13C)	IC50 ([6]; KRAS WT FRET data IC50, KRAS WT)
C=CC(=O)N1CC[C@H](C(=O)N(C)[C@H](C(=O)N[C@H]2Cc3cc(O)cc(c3)-c3ccc4c(c3)c(c(-c3ccccc3CCOC)n4C(C)(C)C#N)CC(C)(C)COC(=O)[C@@H]3CCCN(N3)C2=O)C(C)C)C1 [Example A034]	100 to 1000	1000 to 10000	100 to 1000	100 to 1000	1000 to 10000	1000 to 10000	–	–	–	–	–	–
C=CC(=O)N1CC[C@H](C(=O)N(C)[C@H](C(=O)N[C@H]2Cc3cc(O)cc(c3)-c3ccc4c(c3)c(c(-c3ccc5cc(CN(C)C)n(C)c5c3)n4CC)CC(C)(C)COC(=O)[C@@H]3CCCN(N3)C2=O)C(C)C)C1 [Example A035]	100 to 1000	> 10000	1000 to 10000	1000 to 10000	1000 to 10000	1000 to 10000	–	–	–	–	–	–
C=CC(=O)N1CC[C@H](C(=O)N(C)[C@H](C(=O)N[C@H]2Cc3cc(OC(=O)NCC(=O)O)cc(c3)-c3ccc4c(c3)c(c(-c3ccccc3CCOC)n4CC)CC(C)(C)COC(=O)[C@@H]3CCCN(N3)C2=O)C(C)C)C1 [Example A036]	–	–	–	–	–	–	1000 to 10000 nM and > 10000 nM	> 10000	1000 to 10000 nM and > 10000 nM	1000 to 10000 nM and > 10000 nM	100 to 1000 nM and > 10000 nM	1000 to 10000 nM and > 10000 nM
C=CC(=O)N1CC[C@H](C(=O)N(C)[C@H](C(=O)N[C@H]2Cc3cc(O)cc(c3)-c3ccc4c(c3)c(c(-c3ccc(C5CCN(C)CC5)cc3)n4CC)CC(C)(C)COC(=O)[C@@H]3CCCN(N3)C2=O)C(C)C)C1 [Example A039]	100 to 1000	1000 to 10000	1000 to 10000	1000 to 10000	1000 to 10000	1000 to 10000	–	–	–	–	–	–
C=CC(=O)N1C[C@H](C)[C@H](C(=O)N(C)[C@H](C(=O)N[C@H]2Cc3cc(O)cc(c3)-c3ccc4c(c3)c(c(-c3ccccc3CCOC)n4CC)CC(C)(C)COC(=O)[C@@H]3CCCN(N3)C2=O)C(C)C)C1 [Example A041]	100 to 1000	> 10000	100 to 1000	100 to 1000	1000 to 10000	1000 to 10000	–	–	–	–	–	–
C=CC(=O)N1CC[C@H](C(=O)N(C)[C@H](C(=O)N[C@H]2Cc3cc(O)cc(c3)-c3ccc4c(c3)c(c(-c3cccnc3COCC)n4CC)CC(C)(C)COC(=O)[C@@H]3CCCN(N3)C2=O)C(C)C)C1 [Example A044]	10 to 100	1000 to 10000	100 to 1000	100 to 1000	100 to 1000	1000 to 10000	–	–	–	–	–	–
CCn1c(-c2ccccc2CN(C)C)c2c3cc(ccc31)-c1cc(O)cc(c1)C[C@H](NC(=O)[C@H](C(C)C)N(C)C(=O)c1ccc(NC(=O)/C=C/CN(C)C)cn1)C(=O)N1CCC[C@H](N1)C(=O)OCC(C)(C)C2 [Example A046]	100 to 1000	1000 to 10000	> 10000	1000 to 10000	10 to 100	> 10000	–	–	–	–	–	–
CCn1c(-c2ccccc2CN(C)C)c2c3cc(ccc31)-c1cc(O)cc(c1)C[C@H](NC(=O)[C@H](C(C)C)N(C)C(=O)[C@H]1CCN(C(=O)/C=C/CN(C)C)C1)C(=O)N1CCC[C@H](N1)C(=O)OCC(C)(C)C2 [Example A047]	10 to 100	1000 to 10000	100 to 1000	100 to 1000	100 to 1000	1000 to 10000	–	–	–	–	–	–
C=CC(=O)N1CC[C@H](C(=O)N(C)[C@H](C(=O)N[C@H]2Cc3cc(O)cc(c3)-c3ccc4c(c3)c(c(-c3ccc(CN(C)C)cc3COC)n4CC)CC(C)(C)COC(=O)[C@@H]3CCCN(N3)C2=O)C(C)C)C1 [Example A051]	10 to 100	1000 to 10000	100 to 1000	100 to 1000	1000 to 10000	1000 to 10000	–	–	–	–	–	–
C=CC(=O)N1C[C@H](C)[C@H](C(=O)N(C)[C@H](C(=O)N[C@H]2Cc3cc(O)cc(c3)-c3ccc4c(c3)c(c(-c3ccccc3CN(C)C)n4CC)CC(C)(C)COC(=O)[C@@H]3CCCN(N3)C2=O)C(C)C)C1 [Example A052]	10 to 100	1000 to 10000	100 to 1000	100 to 1000	100 to 1000	100 to 1000	–	–	–	–	–	–
C=CC(=O)N1CC[C@H](C(=O)N(C)[C@H](C(=O)N[C@H]2Cc3cc(O)cc(c3)-c3ccc4c(c3)c(c(-c3cccnc3COC)n4CC)CC(C)(C)COC(=O)[C@@H]3CCCN(N3)C2=O)C2CCCC2)C1 [Example A055]	10 to 100	1000 to 10000	100 to 1000	100 to 1000	100 to 1000	1000 to 10000	–	–	–	–	–	–
C=CC(=O)N1CC[C@H](C(=O)N(C)[C@H](C(=O)N[C@H]2Cc3cc(O)cc(c3)-c3ccc4c(c3)c(c(C3=C(COC)COCC3)n4CC)CC(C)(C)COC(=O)[C@@H]3CCCN(N3)C2=O)C(C)C)C1 [Example A058]	10 to 100	1000 to 10000	100 to 1000	100 to 1000	1000 to 10000	1000 to 10000	–	–	–	–	–	–
CCn1c(-c2cccnc2COC)c2c3cc(ccc31)-c1cc(O)cc(c1)C[C@H](NC(=O)[C@H](C(C)C)N(C)C(=O)[C@H]1CCN(C(=O)/C=C/CN3CCN(C)CC3)C1)C(=O)N1CCC[C@H](N1)C(=O)OCC(C)(C)C2 [Example A072]	10 to 100	1000 to 10000	100 to 1000	100 to 1000	100 to 1000	100 to 1000	–	–	–	–	–	–
C=CC(=O)N1CC[C@H](C(=O)N(C)[C@H](C(=O)N[C@H]2Cc3cc(O)cc(c3)-c3ccc4c(c3)c(c(-c3cncc(CN(C)C)c3)n4CC)CC(C)(C)COC(=O)[C@@H]3CCCN(N3)C2=O)C(C)C)C1 [Example A073]	100 to 1000	> 10000	1000 to 10000	1000 to 10000	1000 to 10000	1000 to 10000	–	–	–	–	–	–
C=CC(=O)N1CC[C@H](C(=O)N(C)[C@H](C(=O)N[C@H]2Cc3cc(O)cc(c3)-c3ccc4c(c3)c(c(-c3cncc(CCN(C)C)c3)n4CC)CC(C)(C)COC(=O)[C@@H]3CCCN(N3)C2=O)C(C)C)C1 [Example A081]	100 to 1000	> 10000	1000 to 10000	1000 to 10000	1000 to 10000	1000 to 10000	–	–	–	–	–	–
C=CC(=O)N1CC[C@H](C(=O)N(C)[C@H](C(=O)N[C@H]2Cc3cc(O)cc(c3)-c3ccc4c(c3)c(c(-c3ccncc3COC)n4CC)CC(C)(C)COC(=O)[C@@H]3CCCN(N3)C2=O)C(C)C)C1 [Example A091]	10 to 100	1000 to 10000	100 to 1000	100 to 1000	100 to 1000	100 to 1000	–	–	–	–	–	–
C=CC(=O)N1CC[C@H](C(=O)N(C)[C@H](C(=O)N[C@H]2Cc3cc(O)cc(c3)-c3ccc4c(c3)c(c(-c3cccnc3CN(C)C)n4CC)CC(C)(C)COC(=O)[C@@H]3CCCN(N3)C2=O)C(C)C)C1 [Example A092]	100 to 1000	> 10000	1000 to 10000	1000 to 10000	1000 to 10000	1000 to 10000	–	–	–	–	–	–
